# Laboratory results taken from patent publication US11602538B2, “Prophylaxis and treatment of cognitive dysfunction and decline” (The Florey Institute of Neuroscience and Mental Health, priority 2017, dated 2023).
# Entries after “also recorded” stand apart in the source; their conditions may differ.
# Legend:
# [1] = test system: mice receiving a controlled cortical impact traumatic brain injury (TBI); assay: Morris water maze after controlled cortical impact TBI; type: in vivo, mouse; conditions: treated post-TBI daily by oral gavage, 2% in SSV, vs SSV controls
# Description: Trehalose (Sigma) has a generous safety profile in rodents and humans has been posted as “Generally Regarded as Safe” (GRAS) for human consumption by the U.S. Federal Drug Administration (FDA) in October 2000, is used as a food additive, and is also an excipient in many pharmaceuticals, making trehalose a safe, natural and pharmaceutically accepted product. In this study, it was supplied as a 2% w/v in standard suspension vehicle (SSV) solution via oral gavage at a dose of 0.1 ml to 10 g body weight. SSV solution was purchased from Sigma and contains 0.9% sodium chloride (NaCl), 0.5% Sodium carboxymethylcellulose (Na-CMC), 0.5% Benzyl alcohol, 0.4%, Tween 80 (polyoxyethylenesorbitan monooleate).
# (§1) Surgical procedures and controlled cortical impact (CCI) have been previously described (see Portbury et al., 2015, Metallomics. doi:10.1039/c5mt00234f). Briefly, 3 month-old male C57B16 mice were anesthetized via intraperitoneal injection of 100 mg/kg ketamine and 10 mg/kg xylazine. A 10 mm mid-line incision was made over the skull, and the skin and fascia were reflected to make a 4 mm craniotomy on the central aspect of the right parietal bone using a motorized drill. Upon animal positioning in a stereotaxic frame a CCI injury was subsequently delivered (3 m/s velocity with a 1.5 mm penetration depth).
# (§2) Three groups of animals were subjected to TBI as separate experiments. The first group of animals were treated daily with 2% trehalose in SSV solution at 0.1 ml per 10 g body weight via oral gavage for a period of 31 days or SSV solution following the TBI. […] The second groups of animals underwent an identical dosing procedure but were treated with either SSV or maltose as a disaccharide control for trehalose. […] A further group of animals was pre-treated with trehalose prior to TBI. These pre-treated mice received a daily treatment of 2% trehalose in SSV solution at 0.1 ml per 10 g body weight via oral gavage for 7 days prior to TBI. Following TBI, these animals received SSV solution only for the remaining duration of the experiment.
# (§3) The Morris Water Maze (MWM) was used to assess the effect of trehalose on spatial learning and memory function following TBI. The pre-training acclimation day of the water maze was performed on day 23 of dosing, followed by six days of place discrimination training of four 90 second trials per day, conducted on days 24-29 of dosing. The probe trial was performed 24 hours after training on dosing day 30 to assess retention of the task. Data was analysed using the Ethovision automated tracking system. Animals were culled on day 31. Both experimental groups adhered to the same time lines of behavioral assessment. The open field assessment was performed on day 19 of dosing and the Y-maze assessment was performed on day 21 of dosing.
# (§4) For LA-ICPMS samples, statistical analysis was carried out in Prism 7 (Graph-Pad) software. Analysis was carried out with a two-tailed t test with the level of significance set at p=0.05. For multiple comparisons two-way ANOVA was used to identify significant differences between ipsilateral and contralateral ROI's. For western blot analysis, images were produced using Image Studio Lite (version 4.0.21, LI-COR Biosciences) and subsequent statistical analysis was carried out in Prism 7 (Graph-Pad). All behavioral analysis was performed using Prism 7 (Graph-Pad).
# [2] = test system: mice receiving a controlled cortical impact traumatic brain injury (TBI); assay: Y-maze assessment after TBI; type: in vivo, mouse; conditions: treated post-TBI, dosing day 21; vs SSV
# Description: as §1, §2, §3, §4
smiles,measurement,setting,value
OC[C@H]1O[C@H](O[C@H]2[C@H](O)[C@@H](O)C(O)O[C@@H]2CO)[C@H](O)[C@@H](O)[C@@H]1O (mixture of isomers) [maltose],"escape latency / acquisition of the task (learning component), Morris water maze","[1]; 0.1 ml per 10 g, training on dosing days 24-29",no such improvement; also recorded: no significant differences
same,"probe day 24-hour task retention (recall component), Morris water maze",[1]; dosing day 30,no such improvement; also recorded: no significant differences
same,"five-minute frequency of visits into the novel arm, Y-maze",[2],no significant preference for the novel arm; also recorded: no significant improvement
same,"one-minute duration of time in the novel arm, Y-maze",[2],no significant improvement
same,"one-minute frequency of visits into the novel arm, Y-maze",[2],no significant preference for the novel arm; also recorded: no significant improvement
